Assay: Transfluthrin evaporation / release rate from loaded fabric substrates (aging, acetone extraction, GC-MS)
Format: physicochemical
Source text: In some cases, release rates of the pyrethroids may range between about 0.1 milligrams per hour and about 3 milligrams per hour, as measured by gas chromatography mass spectroscopy (GC-MS). In some embodiments, the release rate may range between about 0.1 milligrams per hour and about 3 milligrams per hour, between about 0.5 milligrams per hour and about 3 milligrams per hour, or between about 1 milligrams per hour and about 3 milligrams per hour for an overall device of the invention, as measured by GC-MS. Other release rates are also possible. The release rate of the pyrethroid may be determined, for example, by immersing a loaded substrate in a suitable solvent (e.g., acetone) and sonicating. The substrate may then be rinsed and the solvent containing the released pyrethroid is collected. […]
Fabric samples comprised of cellulose or glass were prepared with Transfluthrin using either a wet application, or a wet application followed by a dry application, as described herein. […] The amount of Transfluthrin in the extracted sample was measured using a Restel Rtx®-5MS gas chromatography—mass spectrometry column. […] Evaporation rates, as determined by solvent extraction of Transfluthrin and followed by GC-MS as described previously, for cellulose fabric wet application and wet-and-dry application samples (Samples A and B in Table 1) are plotted in FIG. 3A and FIG. 3B, respectively. […]

Structure (SMILES): CC1(C)[C@H](C=C(Cl)Cl)[C@H]1C(=O)OCc1c(F)c(F)cc(F)c1F [transfluthrin, Transfluthrin]
- evaporation rate (combination of particle size distributions on 5″×4″ square fabric of cellulose): 0.5 mg per 21 days
- evaporation rate (on an equivalent 20″×20″ cellulose fabric): 10 mg per 21 days

Reference: patent publication US10092003B2, “Insect control device and associated methods” (Novel Textiles & Treatments LLC, priority 2014, dated 2018)
